Laboratory results published in patent US20020007060A1, “Reverse hydroxamate inhibitors of matrix metalloproteinases” (priority 1998, published 2002).
Counter-ions that a name gives are not always drawn.

| SMILES | melting point |
| --- | --- |
| CC1(C)CC(=O)N(CC(COc2ccc(-c3ccc(C#N)cc3)cc2)N(O)C=O)C(=O)C1 (stereo not shown) (as salt: potassium) [Example 50, N-[1-[[(4′-cyano[1,1′-biphenyl]-4-yl)oxy]methyl]-2-(4,4-dimethyl-2,6-dioxo-1-piperidinyl)ethyl]-N-hydroxyformamide] | 121 °C |
| N#Cc1ccc(-c2ccc(OCC(COc3ccccc3)N(O)C=O)cc2)cc1 (racemic) [Example 1, (±)-N-[1-[[(4′-cyano-[1,1′-biphenyl]-4-yl)oxy]methyl]-2-phenoxyethyl]-N-hydroxyformamide] | 133 to 135 °C |
| N#Cc1ccc(-c2ccc(OCC(CN3C(=O)c4ccccc4C3=O)N(O)C=O)cc2)cc1 (racemic) [Example 3, (±)-N-[1-[[(4′-cyano-[1,1′-biphenyl]-4-yl)oxy]methyl]-2-(2,3-dihydro-1,3-dioxo-1H-isoindol-2-yl)ethyl]-N-hydroxyformamide] | 199 to 202 °C |
| CCC(C)C(COc1ccc(-c2ccc(C#N)cc2)cc1)N(O)C=O (racemic) [Example 8, (±)-N-[1-[[(4′-cyano-[1,1′-biphenyl]-4-yl)oxy]methyl]-2-methylbutyl]-N-hydroxyformamide] | 96 to 98 °C |
| CCCCC(COc1ccc(-c2ccc(C#N)cc2)cc1)N(O)C=O (racemic) [Example 9, (±)-N-[1-[[(4′-cyano-[1,1′-biphenyl]-4-yl)oxy]methyl]pentyl]-N-hydroxyformamide] | 105 to 108 °C |
| Cc1ccc(CC(COc2ccc(-c3ccc(C#N)cc3)cc2)N(O)C=O)cc1 (racemic) [Example 10, (±)-N-[1-[[(4′-cyano-[1,1′-biphenyl]-4-yl)oxy]methyl]-2-(4-methylphenyl)ethyl]-N-hydroxyformamide] | 173 to 175 °C |
| N#Cc1ccc(-c2ccc(OCC(c3ccc(F)cc3)N(O)C=O)cc2)cc1 (racemic) [Example 11, (±)-N-[2-[(4′-cyano-[1,1′-biphenyl]-4-yl)oxy]-1-(4-fluorophenyl)ethyl]-N-hydroxyformamide] | 194 to 196 °C |
| CC(COc1ccc(-c2ccc(C#N)cc2)cc1)N(O)C=O (racemic) [Example 13, (±)-N-[1-[[(4′-cyano-[1,1′-biphenyl]-4-yl)oxy]methyl]ethyl]-N-hydroxyformamide] | 141 to 144 °C |
| O=CN(O)C(CS(=O)(=O)c1ccc(-c2ccc(C(F)(F)F)cc2)cc1)c1cccnc1 (racemic) [Example 120, (±)-N-hydroxy-N-[1-(3-pyridinyl)-2-[[4′-(trifluoromethyl)[1,1′-biphenyl]-4-yl]sulfonyl]ethyl]formamide] | 186.5 to 188.8 °C |
| CC(CS(=O)(=O)c1ccc(-c2ccc(C(F)(F)F)cc2)cc1)N(O)C=O (racemic) [Example 122, (±)-N-hydroxy-N-[1-methyl-2-[[4′-(trifluoromethyl)[1,1′-biphenyl]-4-yl]sulfonyl]ethyl]formamide] | 174.6 to 175.2 °C |
| O=CN(O)C(CS(=O)(=O)c1ccc(-c2ccc(C(F)(F)F)cc2)cc1)c1ccccn1 (racemic) [Example 123, (±)-N-hydroxy-N-[1-(2-pyridinyl)-2-[[4′-(trifluoromethyl) [1,1′-biphenyl]-4-yl]sulfonyl]ethyl]formamide] | 168.5 to 168.9 °C |
| CC1(C)CC(=O)N(CC(CS(=O)(=O)c2ccc(-c3ccc(C(F)(F)F)cc3)cc2)N(O)C=O)C(=O)C1 (racemic) [Example 124, (±)-N-[1-[(4,4-dimethyl-2,6-dioxo-1-piperidinyl)methyl]-2-[[4′-(trifluoromethyl)[1,1′-biphenyl]-4-yl]sulfonyl]ethyl]-N-hydroxyformamide] | 185.6 to 187.3 °C |
| O=CN(O)C(CCO)CS(=O)(=O)c1ccc(-c2ccc(C(F)(F)F)cc2)cc1 (racemic) [Example 125, (±)-N-hydroxy-N-[3-hydroxy-1-[[[4′-(trifluoromethyl)[1,1′-biphenyl]-4-yl]sulfonyl]methyl]propyl]formamide] | 186.5 to 188.8 °C |
| COCC(CS(=O)(=O)c1ccc(-c2ccc(C(F)(F)F)cc2)cc1)N(O)C=O (racemic) [Example 126, (±)-N-hydroxy-N-[1-(methoxymethyl)-2-[[4′-(trifluoromethyl)[1,1′-biphenyl]-4-yl]sulfonyl]ethyl]formamide] | 175.3 to 176.3 °C |
| O=CN(O)C(CS(=O)(=O)c1ccc(-c2ccc(C(F)(F)F)cc2)cc1)c1ccc2c(c1)OCO2 (racemic) [Example 127, (±)-N-[1-(1,3-benzodioxol-5-yl)-2-[[4′-(trifluoromethyl)[1,1′-biphenyl]-4-yl]sulfonyl]ethyl]-N-hydroxyformamide] | 159.5 to 160.5 °C |
| O=CN(O)C(CCCO)CS(=O)(=O)c1ccc(-c2ccc(C(F)(F)F)cc2)cc1 (racemic) [Example 128, (±)-N-hydroxy-N-[4-hydroxy-1-[[[4′-(trifluoromethyl)[1,1′-biphenyl]-4-yl]sulfonyl]methyl]butyl]formamide] | 138.9 to 140.3 °C |
| COCOc1ccc(C(CS(=O)(=O)c2ccc(-c3ccc(C(F)(F)F)cc3)cc2)N(O)C=O)cc1 (racemic) [Example 129, (±)-N-hydroxy-N-[1-[4-(methoxymethoxy)phenyl]-2-[[4′-(trifluoromethyl)[1,1′-biphenyl]-4-yl]sulfonyl]ethyl]formamide] | 137.1 to 138.5 °C |

| SMILES | melting point |
| --- | --- |
| O=CN(O)C(CO)CS(=O)(=O)c1ccc(Oc2ccc(OC(F)(F)F)cc2)cc1 (racemic) [Example 138, (±)-N-hydroxy-N-[1-(hydroxymethyl)-2-[[4-[4-(trifluoromethoxy)phenoxy]phenyl]sulfonyl]ethyl]formamide] | 115 to 117 °C |
| CS(=O)(=O)c1ccc(-c2ccc(S(=O)(=O)CC(CO)N(O)C=O)cc2)cc1 (racemic) [Example 148, (±)-N-hydroxy-N-[1-(hydroxymethyl)-2-[[4′-(methylsulfonyl)[1,1′-biphenyl]-4-yl]sulfonyl]ethyl]formamide] | 165 to 167 °C |
| CSc1ccc(-c2ccc(S(=O)(=O)CC(CO)N(O)C=O)cc2)cc1 (racemic) [Example 150, (±)-N-hydroxy-N-[1-(hydroxymethyl)-2-[[4′-(methylthio)[1,1′-biphenyl]-4-yl]sulfonyl]ethyl]formamide] | 161 to 162 °C |
| O=CN(O)C(CO)CS(=O)(=O)c1ccc(-c2ccc(OC(F)(F)F)cc2)cc1 (racemic) [Example 151, (±)-N-hydroxy-N-[1-(hydroxymethyl)-2-[[4′-(trifluoromethoxy)[1,1′-biphenyl]-4-yl]sulfonyl]ethyl]formamide] | 167 to 168 °C |
| O=CN(O)C(CO)CS(=O)(=O)c1ccc(-c2ccc(Cl)cc2)cc1 (racemic) [Example 152, (±)-N-hydroxy-N-[1-(hydroxymethyl)-2-[(4′chloro[1,1′-biphenyl]-4-yl)sulfonyl]ethyl]formamide] | 153 to 154 °C |
| CN1C(=O)N(CC(CS(=O)(=O)c2ccc(Oc3ccc(C(F)(F)F)cc3)cc2)N(O)C=O)C(=O)C1(C)C (racemic) [Example 153, (±)-N-[1-[(2,5-dioxo-3,4,4-trimethyl-1-imidazolidinyl)methyl]-2-[[4-[4-(trifluoromethyl)phenoxy]phenyl]sulfonyl]ethyl]-N-hydroxyformamide] | 141 to 143 °C |
| O=CN(O)C(CS(=O)(=O)c1ccc(-c2ccc(OC(F)(F)F)cc2)cc1)c1ccccn1 (racemic) [Example 186, (±)-N-hydroxy-N-[1-(2-pyridinyl)-2-[[4′-(trifluoromethoxy)[1,1′-biphenyl]-4-yl]sulfonyl]ethyl]formamide] | 116.4 to 117.6 °C |
| N#Cc1ccc(-c2ccc(OCCN(O)C=O)cc2)cc1 [Example 15, N-[2-[(4′-cyano-[1,1′-biphenyl]-4-yl)oxy]ethyl]-N-hydroxyformamide] | 142 to 145 °C |
| CN1C(=O)N(CC(COc2ccc(-c3cccc(C#N)c3)cc2)N(O)C=O)C(=O)C1(C)C (stereo not shown) [Example 39, N-[1-[[(3′-cyano[1,1′-biphenyl]-4-yl)oxy]methyl]-2-(3,4,4-trimethyl-2,5-dioxo-1-imidazolidinyl)ethyl]-N-hydroxyformamide] | 130 to 132 °C |
| CSc1ccc(-c2ccc(OCC(CN3C(=O)N(C)C(C)(C)C3=O)N(O)C=O)cc2)cc1 (stereo not shown) [Example 40, N-[1-[[[4′-(methylthio)[1,1′-biphenyl]-4-yl]oxy]methyl]-2-(3,4,4-trimethyl-2,5-dioxo-1-imidazolidinyl)ethyl]-N-hydroxyformamide] | 172 to 174 °C |
| CC1(C)NC(=O)N(CCC(COc2ccc(-c3ccc(C#N)cc3)cc2)N(O)C=O)C1=O (stereo not shown) [Example 47, N-[1-[[(4′-cyano[1,1′-biphenyl]-4-yl)oxy]methyl]-3-(4,4-dimethyl-2,5-dioxo-1-imidazolidinyl)propyl]-N-hydroxyformamide] | 202 to 204 °C |
| N#Cc1cccc(-c2ccc(OCC(CN3C(=O)CCC3=O)N(O)C=O)cc2)c1 (stereo not shown) [Example 49, N-[1-[[(3′-cyano[1,1′-biphenyl]-4-yl)oxy]methyl]-2-(2,5-dioxo-1-pyrrolidinyl)ethyl]-N-hydroxyformamide] | 128 °C |
| CC(CS(=O)(=O)c1ccc(-c2ccc(Cl)cc2)cc1)N(O)C=O (stereo not shown) [Example 72, N-[1-[[(4′-chloro[1,1′-biphenyl]-4-yl)sulfonyl]methyl]ethyl]-N-hydroxyformamide] | 178 to 180 °C |
| CC(CS(=O)(=O)c1ccc(-c2ccc3c(c2)OCO3)cc1)N(O)C=O (stereo not shown) [Example 73, N-[1-[[[4-(1,3-benzodioxol-5-yl)phenyl]sulfonyl]methyl]ethyl]-N-hydroxyformamide] | 200 to 201 °C |
| CC(CS(=O)(=O)c1ccc(Oc2ccc(Cl)cc2)cc1)N(O)C=O (stereo not shown) [Example 74, N-[1-[[[4-(4-chlorophenoxy)phenyl]sulfonyl]methyl]ethyl]-N-hydroxyformamide] | 144 to 145 °C |
| CCC(CS(=O)(=O)c1ccc(-c2ccc(OC)cc2)cc1)N(O)C=O (stereo not shown) [Example 75, N-[1-[[(4′-methoxyl[1,1′-biphenyl]-4-yl)sulfonyl]methyl]propyl]-N-hydroxyformamide] | 199 to 200 °C |
| O=CN(O)C(COCc1ccccc1)CS(=O)(=O)c1ccc(-c2ccc(C(F)(F)F)cc2)cc1 (stereo not shown) [Example 77, N-[1-[(phenylmethoxy)methyl]-2-[[4′-(trifluoromethyl)[1,1′-biphenyl]-4-yl]sulfonyl]ethyl]-N-hydroxyformamide] | 172 °C |
